We go through two molecules from patent US20170128390A1, “DISINFECTANT AND ANTIMICROBIAL COMPOSITIONS, IN PARTICULAR FOR THE VETERINARY FIELD” (I.C.F. S.R.L., priority 2014, published 2017).

Experiment [1] deals with Staphylococcus aureus ATCC 25923. Description: Time-killing assay (bactericidal activity of new formulations), CFU count. It counts as cell-based. Conditions: CLX 0.000106%, AMP 2041 0.5 μg/ml; for Δ (change of CFU count) at T0 / CFU count at T0: T0 = 0 min; for CFU count at T0 / CFU count at T0.5 / CFU count at T1 / CFU count at T3 / CFU count at T5 / CFU count at T10: CC 600; for Δ (change of CFU count) at T0.5 / CFU count at T0.5: T0.5 = 0.5 min; for Δ (change of CFU count) at T1 / CFU count at T1: T1 = 1 min; for Δ (change of CFU count) at T3 / CFU count at T3: T3 (footnote: T2.5 = 2.5 min); for Δ (change of CFU count) at T5 / CFU count at T5: T5 = 5 min; for Δ (change of CFU count) at T10 / CFU count at T10: T10 = 10 min. The procedure: For each strain of reference, three to five morphologically similar colonies are selected from blood agar plates and inoculated into tubes containing 6 ml of Brain Heart Infusion broth (DIFCO, USA).
The tubes are vortexed and incubated at 37° C. with stirring at 225 rpm for 3-4 hours, until achieving a required degree of turbidity, greater than or equal to 0.5 of the Mc Farland scale.
Thereafter, the bacterial suspension is centrifuged at 1000 rpm for 20 minutes. The resulting pellet of bacteria is resuspended in 10mM PB. The turbidity is adjusted with the same buffer solution and checked by measuring the absorbance of the suspension at the spectrophotometer. The absorbance is considered equal to 0.5 of the Mc Farland scale when the optical density at 600 nm is between 0:08-0:13. At this value, the bacterial suspension contains approximately 10^8UFC/ml. Two hundred microliters of the assessed and adjusted bacterial suspension are added to 19.8 ml of 10 mM PB to obtain a final dilution of 1:100. Then, within a thirty minutes, 0:05 ml of this suspension (10^6UFC/ml) are inoculated into each well of an ELISA plate to obtain a final concentration of bacteria of about 5×10^5UFC/ml.
The time-killing assay was carried out to evaluate the bactericidal effects of the new formulations, using a modified quantitative test of the European standards EN1040 and EN1276. 100 μl of the bacterial suspension are added to 900 μl of the new formulation and aliquots of 50 μl of the mixture are subjected to assay at 0.5, 1, 2.5, 5, 10, 20, 30, 60, 90 and 120 min., respectively. 450 μl of neutralizing solution are added to each sample and left to act at room temperature for 3 minutes. Thereafter, each sample is serially diluted in PBS (pH 7.4) and 50 μl are plated on LB agar and the plates incubated at 37° C. for 24 hours for the count of CFU. The sterility control (100 μl PBS in place of the bacterial suspension) and the control in the absence of the new formulation are set up. The test is also carried out in the presence of 0.3% and 3.0% (w/v) BSA to simulate a paraphysiological environment. All experiments were repeated in triplicate.

For experiment [2], the system named is Pseudomonas aeruginosa ATCC 27853. Described as above. Format: cell-based. Conditions: CLX 0.000106%, AMP 2041 0.5 μg/ml, TRIS-EDTA 0.1% alone or 0.476%-0.126% in triple combination; for Δ (change of CFU count) at T0 / CFU count at T0: T0 = 0 min; for CFU count at T0 / CFU count at T0.5 / CFU count at T1 / CFU count at T3 / CFU count at T5 / CFU count at T10: CC 600; for Δ (change of CFU count) at T0.5 / CFU count at T0.5: T0.5 = 0.5 min; for Δ (change of CFU count) at T1 / CFU count at T1: T1 = 1 min; for Δ (change of CFU count) at T3 / CFU count at T3: T3 (footnote: T2.5 = 2.5 min); for Δ (change of CFU count) at T5 / CFU count at T5: T5 = 5 min; for Δ (change of CFU count) at T10 / CFU count at T10: T10 = 10 min. As to the method:
The tubes are vortexed and incubated at 37° C. with stirring at 225 rpm for 3-4 hours, until achieving a required degree of turbidity, greater than or equal to 0.5 of the Mc Farland scale. Thereafter, the bacterial suspension is centrifuged at 1000 rpm for 20 minutes. The resulting pellet of bacteria is resuspended in 10mM PB. The turbidity is adjusted with the same buffer solution and checked by measuring the absorbance of the suspension at the spectrophotometer. The absorbance is considered equal to 0.5 of the Mc Farland scale when the optical density at 600 nm is between 0:08-0:13. At this value, the bacterial suspension contains approximately 10^8UFC/ml. Two hundred microliters of the assessed and adjusted bacterial suspension are added to 19.8 ml of 10 mM PB to obtain a final dilution of 1:100. Then, within a thirty minutes, 0:05 ml of this suspension (10^6UFC/ml) are inoculated into each well of an ELISA plate to obtain a final concentration of bacteria of about 5×10^5UFC/ml. […] Thereafter, each sample is serially diluted in PBS (pH 7.4) and 50 μl are plated on LB agar and the plates incubated at 37° C. for 24 hours for the count of CFU. The sterility control (100 μl PBS in place of the bacterial suspension) and the control in the absence of the new formulation are set up. The test is also carried out in the presence of 0.3% and 3.0% (w/v) BSA to simulate a paraphysiological environment. All experiments were repeated in triplicate.

As to `[H]/N=C(\N/C(=N/[H])NCCCCCCNC(=N)NC(=N)Nc1ccc(Cl)cc1)Nc1ccc(Cl)cc1` [CLX, chlorhexidine], in experiment [1], the “Δ (change of CFU count) at T0” value is on record as “Δ = 0%”, the “CFU count at T0” value stood at 600, the “Δ (change of CFU count) at T0.5” value is recorded as “Δ = 0%” and the “CFU count at T0.5” value is recorded as 600. Moreover, in experiment [1], the “Δ (change of CFU count) at T1” value was “Δ = 0%”, the “CFU count at T1” value is 600, the “Δ (change of CFU count) at T3” value is on record as “Δ = 0%” and the “CFU count at T3” value was determined as 600. In addition, in experiment [1], the “Δ (change of CFU count) at T5” value is “Δ = 0%”, the “CFU count at T5” value is 600, the “Δ (change of CFU count) at T10” value is recorded as “Δ = 0%” and the “CFU count at T10” value turned out to be 600. In experiment [2], the “Δ (change of CFU count) at T0” value is “Δ = 0%”, the “CFU count at T0” value is 600, the “Δ (change of CFU count) at T0.5” value is recorded as “Δ = 0%” and the “CFU count at T0.5” value worked out at 600. In experiment [2], the “Δ (change of CFU count) at T1” value is “Δ = 0%”, the “CFU count at T1” value came out at 600, the “Δ (change of CFU count) at T3” value is reported as “Δ = 0%” and the “CFU count at T3” value is reported as 600. Also, in experiment [2], the “Δ (change of CFU count) at T5” value was “Δ = 0%”, the “CFU count at T5” value is reported as 600, the “Δ (change of CFU count) at T10” value was “Δ = 0%” and the “CFU count at T10” value is reported as 600.
As to “AMP 2041: peptide named AMP2041 (SEQ.ID. No.1), synthesized by SelleckChem (HKCAKIKWRGVHVKYCA)”, in experiment [1], the “Δ (change of CFU count) at T0” value is recorded as “Δ = 0%”, the “CFU count at T0” value was 600, the “Δ (change of CFU count) at T0.5” value is “Δ = 0%” and the “CFU count at T0.5” value is reported as 600. Besides, in experiment [1], the “Δ (change of CFU count) at T1” value is given as “Δ = 0%”, the “CFU count at T1” value is given as 600, the “Δ (change of CFU count) at T3” value is “Δ = 0%” and the “CFU count at T3” value was 600. In addition, in experiment [1], the “Δ (change of CFU count) at T5” value is recorded as “Δ = 0%”, the “CFU count at T5” value worked out at 600, the “Δ (change of CFU count) at T10” value is listed as “Δ = 0%” and the “CFU count at T10” value is recorded as 600. In addition, in experiment [2], the “Δ (change of CFU count) at T0” value was “Δ = 0%”, the “CFU count at T0” value came to 600, the “Δ (change of CFU count) at T0.5” value was “Δ = 0%” and the “CFU count at T0.5” value was determined as 600. Besides, in experiment [2], the “Δ (change of CFU count) at T1” value is “Δ = 0%”, the “CFU count at T1” value is 600, the “Δ (change of CFU count) at T3” value was “Δ = 0%” and the “CFU count at T3” value turned out to be 600. In experiment [2], the “Δ (change of CFU count) at T5” value is recorded as “Δ = 0%”, the “CFU count at T5” value was 600, the “Δ (change of CFU count) at T10” value is reported as “Δ = 0%” and the “CFU count at T10” value came out at 600.
